Reference: EP4603105A1, “PHARMACEUTICAL COMPOSITION CONTAINING CYCLIC COMPOUND HAVING SELECTIVE KRAS INHIBITORY EFFECT AGAINST HRAS AND NRAS” (CHUGAI SEIYAKU KABUSHIKI KAISHA, priority 2022, dated 2024)
pIC50, pKd: −log10 of the molar value.

What was measured:
[1] = biological target: GDP-bound KRAS wild-type protein (Homo sapiens, UniProt P01116); assay: Binding to KRAS by surface plasmon resonance (SPR), dissociation constant KD
Summary of the method: (§1)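 Each cycle, GDP-bound biotin-Avi RAS was captured (~100–300 RU), compound concentrations were injected low to high for 75 s each at 100 µL/min, then the chip was regenerated. Buffer: HBS pH 7.4, 10 mM MgCl2, 10 µM GDP, 1 mM DTT, 4% DMSO; 30°C. KD from a 1:1 binding model.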

[2] = biological target: GDP-bound NRAS wild-type protein (Homo sapiens, UniProt P01111); assay: Binding to NRAS by surface plasmon resonance (SPR), KD and KD ratio to KRAS; conditions: ratio of KD for GDP-bound NRAS wild-type protein to KD for KRAS
GDP-bound NRAS wild-type protein, sequence (P01111 whole entry): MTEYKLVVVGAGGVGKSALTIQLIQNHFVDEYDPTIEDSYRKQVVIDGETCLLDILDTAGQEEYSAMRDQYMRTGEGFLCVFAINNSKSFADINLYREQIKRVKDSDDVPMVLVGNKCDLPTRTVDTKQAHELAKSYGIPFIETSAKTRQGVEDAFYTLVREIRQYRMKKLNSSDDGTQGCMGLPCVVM
Summary of the method: as §1

[3] = biological target: HRAS wild-type protein (Homo sapiens, UniProt P01112); assay: Binding to HRAS by surface plasmon resonance (SPR), KD and KD ratio to KRAS; conditions: ratio of KD for HRAS wild-type protein to KD for KRAS
HRAS wild-type protein, sequence (P01112 whole entry): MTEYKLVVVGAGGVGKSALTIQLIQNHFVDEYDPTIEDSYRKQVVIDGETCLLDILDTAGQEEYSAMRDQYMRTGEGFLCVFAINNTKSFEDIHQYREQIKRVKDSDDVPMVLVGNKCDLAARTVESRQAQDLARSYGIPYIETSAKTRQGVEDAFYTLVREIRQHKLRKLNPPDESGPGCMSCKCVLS
Summary of the method: as §1

[4] = test system: human lung cancer strain NCI-H441; assay type: cell-based
Summary of the method: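 Signal came from […] measured per well once the reagent was added. Beforehand, cells were cultured at 37°C and 5% carbon dioxide on a compound series serially diluted in dimethyl sulfoxide.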

[5] = test system: human gastric cancer strain SNU-1; assay type: cell-based
Experimental: (§2) A test compound was dispensed into a U-bottom 384-well plate as 40 nL serially diluted dimethyl sulfoxide solutions using a liquid handler Echo (LABCYTE). As for human gastric cancer strain SNU-1 (ATCC), a cell suspension was prepared so as to have 250 cells/40 µL in an RPMI-1640 medium (Sigma) supplemented with 10% fetal bovine serum (Sigma), a 2.5 g/L D-(+)-glucose solution, 10 mmol/L HEPES, and 1 mmol/L sodium pyruvate. This cell suspension was dispensed in an amount of 40 µL per well into a plate containing the test compound, and cultured at 37°C in a 5% carbon dioxide gas incubator. Seven days later, 20 µL of CellTiter-Glo (registered trademark) (Promega) was added to each well and luminescence was measured.

[6] = test system: human pancreatic cancer strain KP4; assay type: cell-based
Experimental: as §2, with “pancreatic” for “gastric”, “KP4 (Institute of Physical and Chemical Research),” for “SNU-1 (ATCC),”, “500” for “250”, “a DMEM/Ham's F-12” for “an RPMI-1640”, “(Nacalai Tesque)” for “(Sigma)”, “(Sigma).” for “(Sigma), a 2.5 g/L D-(+)-glucose solution, 10 mmol/L HEPES, and 1 mmol/L sodium pyruvate.”

[7] = test system: human colorectal cancer strain GP2d; assay type: cell-based
Experimental: as §2, with “colorectal” for “gastric”, “GP2d (ECACC),” for “SNU-1 (ATCC),”, “500” for “250”, “a Dulbecco's modified Eagle” for “an RPMI-1640”, “medium” for “medium (Sigma)”, “(Sigma).” for “(Sigma), a 2.5 g/L D-(+)-glucose solution, 10 mmol/L HEPES, and 1 mmol/L sodium pyruvate.”

[8] = test system: human gastric cancer strain GSU; assay type: cell-based
Experimental: as §2, with “GSU (Institute of Physical and Chemical Research),” for “SNU-1 (ATCC),”, “200” for “250”, “(Sigma).” for “(Sigma), a 2.5 g/L D-(+)-glucose solution, 10 mmol/L HEPES, and 1 mmol/L sodium pyruvate.”

[9] = test system: human ovarian cancer strain OV7; assay type: cell-based
Experimental: A test compound was dispensed into a U-bottom 384-well plate as 40 nL serially diluted dimethyl sulfoxide solutions using a liquid handler Echo (LABCYTE). As for human ovarian cancer strain OV7 (ECACC), a cell suspension was prepared so as to have 250 cells/40 µL in a DMEM/Ham's F-12 medium (Nacalai Tesque) supplemented with 5% fetal bovine serum (Sigma), 0.5 µg/mL hydrocortisone, and 10 µg/mL insulin. This cell suspension was dispensed in an amount of 40 µL per well into a plate containing the test compound, and cultured at 37°C in a 5% carbon dioxide gas incubator. Seven days later, 20 µL of CellTiter-Glo (registered trademark) (Promega) was added to each well and luminescence was measured.

[10] = test system: human bladder cancer strain UM-UC-3; assay type: cell-based
Experimental: as §2, with “human bladder” for “human gastric”, “strain UM-UC-3” for “strain SNU-1”, “an MEM” for “an RPMI-1640”, “medium (Nacalai Tesque)” for “medium (Sigma)”, “(Sigma), an MEM non-essential amino acids solution (100X),” for “(Sigma), a 2.5 g/L D-(+)-glucose solution, 10 mmol/L HEPES,”, “measured. […]” for “measured.”

GDP-bound KRAS wild-type protein, sequence (P01116 1-188 isoform P01116-2): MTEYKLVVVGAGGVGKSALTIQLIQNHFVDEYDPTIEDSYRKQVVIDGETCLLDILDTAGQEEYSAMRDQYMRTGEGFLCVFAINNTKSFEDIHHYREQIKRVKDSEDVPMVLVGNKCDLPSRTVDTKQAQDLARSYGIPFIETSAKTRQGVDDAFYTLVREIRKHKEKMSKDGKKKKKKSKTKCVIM

| Compound | pKd ([1]; Single Cycle Kinetics) | NRAS /KRAS [2] | HRAS /KRAS [3] | pIC50 [4] | pIC50 [5] | pIC50 [6] | pIC50 [7] | pIC50 [8] | pIC50 [9] | pIC50 [10] | pKd ([1]; 1:1 binding model) |
| --- | --- | --- | --- | --- | --- | --- | --- | --- | --- | --- | --- |
| CCO[C@@H]1C[C@H]2C(=O)OC3(CCC3)C(=O)N(C)[C@@H](C3CCCC3)C(=O)N(C)[C@H](C(=O)N(C)C)CC(=O)N(C)[C@@H]([C@@H](C)OC)C(=O)N[C@@H]([C@@H](C)CC)C(=O)N3CCC[C@H]3C(=O)N(C)[C@H]3C/C=C\CCN(C3=O)[C@@H](Cc3ccc(C(F)(F)F)cc3)C(=O)N(C)CC(=O)N[C@@H](CCc3ccc(C(F)(F)F)c(OC)c3)C(=O)N2C1 [PP3374] | 9.39 | A (a compound having 10 or more and less than 20 is denoted as A) | A (a compound having 10 or more and less than 20 is denoted as A) | 8.23 | 8.13 | 8.09 | 8.16 | 8.72 | 7.80 | 8.20 | – |
| CCO[C@@H]1C[C@H]2C(=O)NC3(CCCC3)C(=O)N(C)[C@@H](C3CCCC3)C(=O)N(C)[C@H](C(=O)N(C)C)CC(=O)N(C)[C@@H]([C@@H](C)OC)C(=O)N[C@@H]([C@@H](C)CC)C(=O)N(C)CC(=O)N(C)[C@H]3C/C=C\CCN(C3=O)[C@@H](Cc3ccc(C(F)(F)F)cc3)C(=O)N(C)CC(=O)N[C@@H](CCc3cc(F)c(C(F)(F)F)c(F)c3)C(=O)N2C1 [PP3475, (2S,8S,12R,14S,20S,23S,27S,30S,36S,38Z)-20-cyclopentyl-8-[2-[3,5-difluoro-4-(trifluoromethyl)phenyl]ethyl]-12-ethoxy-27-[(1R)-1-methoxyethyl]-N,N,4,19,22,26,32,35-octamethyl-30-[(1S)-1-methylpropyl]-3,6,9,15,18,21,25,28,31,34,42-undecaoxo-2-[[4-(trifluoromethyl)phenyl]methyl]spiro[1,4,7,10,16,19,22,26,29,32,35-undecazatricyclo[34.5.1.0^10,14]dotetracont-38-ene-17,1'-cyclopentane]-23-carboxamide] | 10.12 | A (a compound having 10 or more and less than 20 is denoted as A) | A (a compound having 10 or more and less than 20 is denoted as A) | 8.14 | 8.60 | 7.88 | 8.46 | 9.10 | 7.88 | 8.41 | – |
| CCO[C@@H]1C[C@H]2C(=O)OC3(CCC3)C(=O)N(C)[C@@H](C3CCCC3)C(=O)N(C)[C@H](C(=O)N(C)C)CC(=O)N(C)[C@@H]([C@@H](C)OC)C(=O)N[C@@H]([C@@H](C)CC)C(=O)N(C)CC(=O)N(C)[C@H]3C/C=C\CCN(C3=O)[C@@H](Cc3ccc(C(F)(F)F)cc3)C(=O)N(C)CC(=O)N[C@@H](CCc3ccc(C(F)(F)F)c(OC)c3)C(=O)N2C1 [PP3376, (2S,8S,12R,14S,20S,23S,27S,30S,36S,38Z)-20-cyclopentyl-12-ethoxy-27-[(1R)-1-methoxyethyl]-8-[2-[3-methoxy-4-(trifluoromethyl)phenyl]ethyl]-N,N,4,19,22,26,32,35-octamethyl-30-[(1S)-1-methylpropyl]-3,6,9,15,18,21,25,28,31,34,42-undecaoxo-2-[[4-(trifluoromethyl)phenyl]methyl]spiro[16-oxa-1,4,7,10,19,22,26,29,32,35-decazatricyclo[34.5.1.0^10,14]dotetracont-38-ene-17,1'-cyclobutane]-23-carboxamide] | 10.02 | A (a compound having 10 or more and less than 20 is denoted as A) | A (a compound having 10 or more and less than 20 is denoted as A) | 8.62 | 8.37 | 8.17 | 8.54 | 9.22 | 8.37 | 8.66 | – |
| CCO[C@@H]1C[C@H]2C(=O)NC3(CC(C)(C)C3)C(=O)N(C)[C@@H](C3CCCC3)C(=O)N(C)[C@H](C(=O)N(C)C)CC(=O)N(C)[C@@H]([C@@H](C)OC)C(=O)N[C@@H]([C@@H](C)CC)C(=O)N(C)CC(=O)N(C)[C@H]3C/C=C\CCN(C3=O)[C@@H](Cc3ccc(C(F)(F)F)cc3)C(=O)N(C)CC(=O)N[C@@H](CCc3ccc(C(F)(F)F)c(Cl)c3)C(=O)N2C1 [PP3198, (2S,8S,12R,14S,20S,23S,27S,30S,36S,38Z)-8-[2-[3-chloro-4-(trifluoromethyl)phenyl]ethyl]-20-cyclopentyl-12-ethoxy-27-[(1R)-1-methoxyethyl]-N,N,3',3',4,19,22,26,32,35-decamethyl-30-[(1S)-1-methylpropyl]-3,6,9,15,18,21,25,28,31,34,42-undecaoxo-2-[[4-(trifluoromethyl)phenyl]methyl]spiro[1,4,7,10,16,19,22,26,29,32,35-undecazatricyclo[34.5.1.0^10,14]dotetracont-38-ene-17,1'-cyclobutane]-23-carboxamide] | – | A (a compound having 10 or more and less than 20 is denoted as A) | A (a compound having 10 or more and less than 20 is denoted as A) | 8.36 | 8.49 | 8.33 | 8.62 | 9.40 | 8.14 | 8.60 | 10.40 |
| C#CC[C@H]1C(=O)N[C@@H]([C@@H](C)CC)C(=O)N(C)CC(=O)N(C)[C@H]2C/C=C\CCN(C2=O)[C@@H](Cc2ccc(C(F)(F)F)cc2)C(=O)N(C)CC(=O)N[C@@H](CCc2ccc(C(F)(F)F)c(Cl)c2)C(=O)N2C[C@H](OCC)C[C@H]2C(=O)N(C)C2(CCC2)C(=O)N(C)[C@@H](C2CCCC2)C(=O)N(C)[C@H](C(=O)N(C)C)CC(=O)N1C [PP3234, (2S,8S,12R,14S,20S,23S,27S,30S,36S,38Z)-8-[2-[3-chloro-4-(trifluoromethyl)phenyl]ethyl]-20-cyclopentyl-12-ethoxy-N,N,4,16,19,22,26,32,35-nonamethyl-30-[(1S)-1-methylpropyl]-3,6,9,15,18,21,25,28,31,34,42-undecaoxo-27-prop-2-ynyl-2-[[4-(trifluoromethyl)phenyl]methyl]spiro[1,4,7,10,16,19,22,26,29,32,35-undecazatricyclo[34.5.1.0^10,14]dotetracont-38-ene-17,1'-cyclobutane]-23-carboxamide] | 10.59 | A (a compound having 10 or more and less than 20 is denoted as A) | B (a compound having 3 or more and less than 10 is denoted as B) | 8.80 | 8.70 | 8.49 | 8.96 | 9.40 | 8.66 | 9.15 | – |
